The values below are quoted from earlier work in patent US10918652B2, “Compositions for the treatment of dermatological diseases and disorders” (CLARIDEI LABORATORIES, INC., priority 2014, dated 2021).

In general, pKa refers to the pH at which an ionisable group is half protonated.

The conditions of this series: cited from Ramachandran et al. 2006.

`O=C(O)[C@H](O)[C@@H](O)[C@H](O)[C@H](O)CO` [Gluconic acid]: the pKa was 3.7.
